Reference: patent publication US5750391A, “Filariid nematode cysteine protease proteins” (Heska Corporation, priority 1995, dated 1998)
“Also recorded” adds a separate entry of the source. Where two headings read alike, the source gives them in different places.

What was measured:
astacin = settings: cited from earlier work
D. immitis larvae = assay: Effect of protease inhibitors on larval molting (L3 cultured in NI medium); assay type: cell-based, Dirofilaria immitis; settings: for % molt: L3 larvae, 72 hours, 37° C.; for inhibition at 1000 µM / inhibition at 2500 µM / inhibition at 5000 µM: Dirofilaria immitis, 72 h, read-out: % reduction (of molt vs control)

Row | SMILES | inhibition of astacin activity (astacin) | % molt (D. immitis larvae; 1.0 mM inhibitor) | % molt (D. immitis larvae; 2.5 mM inhibitor) | % molt (D. immitis larvae; 5.0 mM inhibitor) | inhibition at 1000 µM (D. immitis larvae) | inhibition at 2500 µM (D. immitis larvae) | inhibition at 5000 µM (D. immitis larvae) | movement of treated larvae compared to controls (D. immitis larvae; observed daily throughout the study) | ability of the larvae to molt (D. immitis larvae; treatment of L3, 1 to 5 mM) | ability of the larvae to molt (D. immitis larvae) | condition of treated larvae (D. immitis larvae) | movement of treated larvae compared to controls (D. immitis larvae)
1 | c1cnc2c(c1)ccc1cccnc12 [1,10-phenanthroline] | inhibited | – | – | – | – | – | – | – | – | – | – | –
2 | CC(C)C[C@H](NC(=O)[C@@H](O)[C@H](N)Cc1ccccc1)C(=O)O [Bestatin] | – | 60.0% | 34.8% | 4.9% | 27.3% | 57.9% | 94.1% | moved much more slowly | inhibit molting; also recorded: significantly reduces the ability of the larvae to molt | – | – | –
3 | O=C(O)CN(CCN(CC(=O)O)CC(=O)O)CC(=O)O [EDTA, ethylene diamine tetraacetic acid] | inhibited | – | – | – | – | – | – | – | – | – | – | –
4 | CC(C)C[C@H](NP(=O)(O)O[C@@H]1O[C@@H](C)[C@H](O)[C@@H](O)[C@H]1O)C(=O)N[C@@H](Cc1c[nH]c2ccccc12)C(=O)O [Phosphoramidon] | not by phosphoramidon | – | – | – | 48.4% | 85.1% | 100% | – | – | inhibit molting; also recorded: significantly reduces the ability of the larvae to molt | in poor shape | very active
